Data as given in US9133206B2, “Benzodiazepine and pyridodiazepine derivatives” (AbbVie Inc., priority 2010, dated 2015).

Test system: SK-N-SH human neuroblastoma cells
Assay: Serum Deprivation/JC-1 Mitochondrial Membrane Potential (MMP) Assay
Type: cell-based
Settings: Homo sapiens; for EC50 / Emax: SK-N-SH; for EC50: 18 h, serum deprivation ~18 hours, JC-1 ratio normalized to peak value for 10 μM dimebolin, single curve fit to mean data of n=2-3; for Emax: percent maximal intensity in JC-1 ratio normalized to peak value for 10 μM dimebolin, read-out: JC-1 max %; for Emax / activation at 3 µM: serum deprivation; for activation at 3 µM: single dose 3 μM, JC-1 ratio normalized to peak value for 10 μM dimebolin (n=2-4), read-out: JC-1 max % (@ 3 μM)
Procedure, shortened: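 SK-N-SH cells serum-deprived ~18 h with compound, then stained with JC-1 for 40 min at 37 °C; red (560/595 nm) to green (485/535 nm) ratio reports membrane potential. Response normalized to peak from 10 μM dimebolin; EC50 from fit to mean of n=2–3, or single-dose 3 μM; DMSO ≤1%.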

Row | SMILES | EC50 [µM] | Emax [%] | activation at 3 µM [%]
1 | O=C(N1CCOCC1)N1Cc2ccccc2N2CCN(c3ncccn3)CC2C1 (centres unmarked) [Example 80, morpholin-4-yl[3-(pyrimidin-2-yl)-1,2,3,4,4a,5-hexahydropyrazino[1,2-a][1,4]benzodiazepin-6(7H)-yl]methanone] | 11.9 | 97 | –
2 | O=C(N1CCOCC1)N1Cc2ccccc2N2CCN(S(=O)(=O)c3ccccc3)CC2C1 (centres unmarked) [Example 81, morpholin-4-yl[3-(phenylsulfonyl)-1,2,3,4,4a,5-hexahydropyrazino[1,2-a][1,4]benzodiazepin-6(7H)-yl]methanone] | 9.92 | 129 | –
3 | O=C(N1CCOCC1)N1Cc2ccccc2N2CCN(c3ccc(Cl)cc3)CC2C1 (centres unmarked) [Example 82, [3-(4-chlorophenyl)-1,2,3,4,4a,5-hexahydropyrazino[1,2-a][1,4]benzodiazepin-6(7H)-yl](morpholin-4-yl)methanone] | 5.11 | 127 | –
4 | CC(=O)N1CCN2c3ccccc3CN(C(=O)N3CCOCC3)CC2C1 (centres unmarked) [Example 83, 1-[6-(morpholin-4-ylcarbonyl)-1,2,4a,5,6,7-hexahydropyrazino[1,2-a][1,4]benzodiazepin-3(4H)-yl]ethanone] | > 31.6 | 34 | –
5 | CC(=O)N1CCC(C(=O)N2Cc3ccccc3N3CCN(Cc4ccccc4)CC3C2)CC1 (centres unmarked) [Example 84, 1-{4-[(3-benzyl-1,2,3,4,4a,5-hexahydropyrazino[1,2-a][1,4]benzodiazepin-6(7H)-yl)carbonyl]piperidin-1-yl}ethanone] | – | – | 183
6 | O=C(c1cn[nH]c1)N1Cc2ccccc2N2CCN(Cc3ccccc3)CC2C1 (centres unmarked) [Example 85, (3-benzyl-1,2,3,4,4a,5-hexahydropyrazino[1,2-a][1,4]benzodiazepin-6(7H)-yl)(1H-pyrazol-4-yl)methanone] | – | – | 80
7 | O=C(c1ccn[nH]1)N1Cc2ccccc2N2CCN(Cc3ccccc3)CC2C1 (centres unmarked) [Example 86, (3-benzyl-1,2,3,4,4a,5-hexahydropyrazino[1,2-a][1,4]benzodiazepin-6(7H)-yl)(1H-pyrazol-5-yl)methanone] | 3.14 | 218 | –
8 | O=C(CN1CCOCC1)N1Cc2ccccc2N2CCN(Cc3ccccc3)CC2C1 (centres unmarked) [Example 87, 1-(3-benzyl-1,2,3,4,4a,5-hexahydropyrazino[1,2-a][1,4]benzodiazepin-6(7H)-yl)-2-(morpholin-4-yl)ethanone] | – | – | 83
9 | O=C(c1cscn1)N1Cc2ccccc2N2CCN(Cc3ccccc3)CC2C1 (centres unmarked) [Example 88, (3-benzyl-1,2,3,4,4a,5-hexahydropyrazino[1,2-a][1,4]benzodiazepin-6(7H)-yl)(1,3-thiazol-4-yl)methanone] | – | – | 139
10 | O=C(c1cncs1)N1Cc2ccccc2N2CCN(Cc3ccccc3)CC2C1 (centres unmarked) [Example 89, (3-benzyl-1,2,3,4,4a,5-hexahydropyrazino[1,2-a][1,4]benzodiazepin-6(7H)-yl)(1,3-thiazol-5-yl)methanone] | 1.83 | 140 | –
11 | O=C(c1ccno1)N1Cc2ccccc2N2CCN(Cc3ccccc3)CC2C1 (centres unmarked) [Example 90, (3-benzyl-1,2,3,4,4a,5-hexahydropyrazino[1,2-a][1,4]benzodiazepin-6(7H)-yl)(1,2-oxazol-5-yl)methanone] | – | – | 114
12 | O=C(CCN1CCCC1)N1Cc2ccccc2N2CCN(Cc3ccccc3)CC2C1 (centres unmarked) [Example 91, 1-(3-benzyl-1,2,3,4,4a,5-hexahydropyrazino[1,2-a][1,4]benzodiazepin-6(7H)-yl)-3-(pyrrolidin-1-yl)propan-1-one] | – | – | 78
13 | O=C(CC1CC1)N1Cc2ccccc2N2CCN(Cc3ccccc3)CC2C1 (centres unmarked) [Example 92, 1-(3-benzyl-1,2,3,4,4a,5-hexahydropyrazino[1,2-a][1,4]benzodiazepin-6(7H)-yl)-2-cyclopropylethanone] | 2.47 | 174 | –
14 | O=C(c1ccc[nH]1)N1Cc2ccccc2N2CCN(Cc3ccccc3)CC2C1 (centres unmarked) [Example 93, (3-benzyl-1,2,3,4,4a,5-hexahydropyrazino[1,2-a][1,4]benzodiazepin-6(7H)-yl)(1H-pyrrol-2-yl)methanone] | 1.56 | 185 | –
15 | O=C(c1ccoc1)N1Cc2ccccc2N2CCN(Cc3ccccc3)CC2C1 (centres unmarked) [Example 94, (3-benzyl-1,2,3,4,4a,5-hexahydropyrazino[1,2-a][1,4]benzodiazepin-6(7H)-yl)(3-furyl)methanone] | 2.76 | 172 | –
16 | Cc1cc(C(=O)N2Cc3ccccc3N3CCN(Cc4ccccc4)CC3C2)c(C)n1C (centres unmarked) [Example 95, (3-benzyl-1,2,3,4,4a,5-hexahydropyrazino[1,2-a][1,4]benzodiazepin-6(7H)-yl)(1,2,5-trimethyl-1H-pyrrol-3-yl)methanone] | 0.282 | 189 | –
17 | Cc1cc(C(=O)N2Cc3ccccc3N3CCN(Cc4ccccc4)CC3C2)c(C)[nH]1 (centres unmarked) [Example 96, (3-benzyl-1,2,3,4,4a,5-hexahydropyrazino[1,2-a][1,4]benzodiazepin-6(7H)-yl)(2,5-dimethyl-1H-pyrrol-3-yl)methanone] | 0.856 | 180 | –

Row | SMILES | EC50 [µM] | Emax [%] | activation at 3 µM [%]
18 | NC(=O)C1(C(=O)N2Cc3ccccc3N3CCN(Cc4ccccc4)CC3C2)CC1 (centres unmarked) [Example 97, 1-[(3-benzyl-1,2,3,4,4a,5-hexahydropyrazino[1,2-a][1,4]benzodiazepin-6(7H)-yl)carbonyl]cyclopropanecarboxamide] | – | – | 32
19 | O=C(Cc1cccnc1)N1Cc2ccccc2N2CCN(Cc3ccccc3)CC2C1 (centres unmarked) [Example 98, 1-(3-benzyl-1,2,3,4,4a,5-hexahydropyrazino[1,2-a][1,4]benzodiazepin-6(7H)-yl)-2-(pyridin-3-yl)ethanone] | – | – | 107
20 | O=C(NCC(=O)N1Cc2ccccc2N2CCN(Cc3ccccc3)CC2C1)c1ccco1 (centres unmarked) [Example 99, N-[2-(3-benzyl-1,2,3,4,4a,5-hexahydropyrazino[1,2-a][1,4]benzodiazepin-6(7H)-yl)-2-oxoethyl]-2-furamide] | 3.15 | 165 | –
21 | CC(C)C(=O)N1Cc2ccccc2N2CCN(Cc3ccccc3)CC2C1 (centres unmarked) [Example 100, 1-(3-benzyl-1,2,3,4,4a,5-hexahydropyrazino[1,2-a][1,4]benzodiazepin-6(7H)-yl)-2-methylpropan-1-one] | – | – | 118
22 | Cc1noc(C)c1C(=O)N1Cc2ccccc2N2CCN(Cc3ccccc3)CC2C1 (centres unmarked) [Example 101, (3-benzyl-1,2,3,4,4a,5-hexahydropyrazino[1,2-a][1,4]benzodiazepin-6(7H)-yl)(3,5-dimethyl-1,2-oxazol-4-yl)methanone] | – | – | 149
23 | Cc1cnc(C(=O)N2Cc3ccccc3N3CCN(Cc4ccccc4)CC3C2)cn1 (centres unmarked) [Example 102, (3-benzyl-1,2,3,4,4a,5-hexahydropyrazino[1,2-a][1,4]benzodiazepin-6(7H)-yl)(5-methylpyrazin-2-yl)methanone] | – | – | 110
24 | CN1CCN(CC(=O)N2Cc3ccccc3N3CCN(Cc4ccccc4)CC3C2)CC1 (centres unmarked) [Example 103, 1-(3-benzyl-1,2,3,4,4a,5-hexahydropyrazino[1,2-a][1,4]benzodiazepin-6(7H)-yl)-2-(4-methylpiperazin-1-yl)ethanone] | – | – | 42
25 | O=C(c1ccco1)N1Cc2ccccc2N2CCN(Cc3ccccc3)CC2C1 (centres unmarked) [Example 104, (3-benzyl-1,2,3,4,4a,5-hexahydropyrazino[1,2-a][1,4]benzodiazepin-6(7H)-yl)(2-furyl)methanone] | – | – | 178
26 | Cn1cccc1C(=O)N1Cc2ccccc2N2CCN(Cc3ccccc3)CC2C1 (centres unmarked) [Example 105, (3-benzyl-1,2,3,4,4a,5-hexahydropyrazino[1,2-a][1,4]benzodiazepin-6(7H)-yl)(1-methyl-1H-pyrrol-2-yl)methanone] | 2.52 | 197 | –
27 | CCC(=O)N1Cc2ccccc2N2CCN(Cc3ccccc3)CC2C1 (centres unmarked) [Example 106, 1-(3-benzyl-1,2,3,4,4a,5-hexahydropyrazino[1,2-a][1,4]benzodiazepin-6(7H)-yl)propan-1-one] | – | – | 81
28 | O=C(c1ccncc1)N1Cc2ccccc2N2CCN(Cc3ccccc3)CC2C1 (centres unmarked) [Example 107, (3-benzyl-1,2,3,4,4a,5-hexahydropyrazino[1,2-a][1,4]benzodiazepin-6(7H)-yl)(pyridin-4-yl)methanone] | 5.66 | 192 | –
29 | CCCC(=O)N1Cc2ccccc2N2CCN(Cc3ccccc3)CC2C1 (centres unmarked) [Example 108, 1-(3-benzyl-1,2,3,4,4a,5-hexahydropyrazino[1,2-a][1,4]benzodiazepin-6(7H)-yl)butan-1-one] | 3.12 | 162 | –
30 | O=C(C1CCOC1)N1Cc2ccccc2N2CCN(Cc3ccccc3)CC2C1 (centres unmarked) [Example 109, (3-benzyl-1,2,3,4,4a,5-hexahydropyrazino[1,2-a][1,4]benzodiazepin-6(7H)-yl)(tetrahydrofuran-3-yl)methanone] | – | – | 65
31 | O=C(c1cccnc1)N1Cc2ccccc2N2CCN(Cc3ccccc3)CC2C1 (centres unmarked) [Example 110, (3-benzyl-1,2,3,4,4a,5-hexahydropyrazino[1,2-a][1,4]benzodiazepin-6(7H)-yl)(pyridin-3-yl)methanone] | – | – | 97
32 | O=C(CCN1CCCCC1)N1Cc2ccccc2N2CCN(Cc3ccccc3)CC2C1 (centres unmarked) [Example 111, 1-(3-benzyl-1,2,3,4,4a,5-hexahydropyrazino[1,2-a][1,4]benzodiazepin-6(7H)-yl)-3-(piperidin-1-yl)propan-1-one] | – | – | 162
33 | O=C(C1CC1)N1Cc2ccccc2N2CCN(Cc3ccccc3)CC2C1 (centres unmarked) [Example 112, (3-benzyl-1,2,3,4,4a,5-hexahydropyrazino[1,2-a][1,4]benzodiazepin-6(7H)-yl)(cyclopropyl)methanone] | 4.67 | 139 | –
34 | CCOCC(=O)N1Cc2ccccc2N2CCN(Cc3ccccc3)CC2C1 (centres unmarked) [Example 113, 1-(3-benzyl-1,2,3,4,4a,5-hexahydropyrazino[1,2-a][1,4]benzodiazepin-6(7H)-yl)-2-ethoxyethanone] | – | – | 51
